The text below walks through data of publication PMC11489226 (Archives of Toxicology, 2024).

Several values for one entry are separate records, joined by “and”; a condition that tells them apart may be missing. Identical values can stand only once.

One series concerns the target CYP2E1 (Homo sapiens, UniProt P05181). The series can be described thus: Metabolism in transgenic HEK293 cells expressing CYP2E1. The conditions noted are these: 20 µM parent PCB, 24 h, supernatant. The protocol: (§1) For the generation of transgenic cell lines, we used semi-adherent HEK293 cells (DSMZ, ACC305, human embryonic kidney cells) which were cultured on a daily basis in DMEM medium supplemented with 10% (FCS) and 1% penicillin/streptomycin. In a first step CYP1A2, CYP2C8, CYP2C9, CYP3A4, CYP2A6, and CYP2E1 cDNA were cloned into the plasmid pcDNATM3.1/V5-His TOPO® using human liver RNA as a template and using the following primers: CYP1A2 for5′-[…]-3′, CYP1A2 rev 5′-[…]-3′; CYP2C8 for 5′-[…]-3′, CYP2C8 rev 5′-[…]-3′; CYP2C9 for 5′-[…]-3′, CYP2C9 rev 5′-[…]-3′; CYP3A4 for 5′-[…]-3′, CYP3A4 rev 5′-[…]-3′, CYP2A6 for 5′-[…]-3′, CYP2A6 rev 5′-[…]-3′; CYP2E1 for 5′-[…]-3′, CYP2E1 rev 5′-[…]-3′. Final constructs were verified with Sanger DNA sequencing and restriction digestion. For transfection, 3 × 10^6 HEK293 cells were pre-incubated in a 10 cm dish in DMEM medium with 10% FCS, but without antibiotics, for 18 to 24 h. When the cells reached approximately 70% confluency, they were transfected using TransIT-LT1 transfection reagent (Biozol, Eiching, Germany). The TransIT-LT1 reagent was warmed to room temperature and vortexed. 1.63 mL Opti-MEM, 16.25 µL plasmid DNA (1 µg/µL), and 48.75 µL TransIT-LT1 reagent were mixed and incubated for 15 to 30 min. The mixture was then added dropwise to the medium of the cells, and the cells were incubated again at 37 °C and 5% CO2. After 24 h, the medium was replaced with standard medium and geneticin was added for selection (1 mg/mL). Cells were selected for 6–8 weeks in bulk culture, and single cell clones were obtained subsequently by limiting dilution. Each clone was checked for insertion by PCR using genomic DNA as a template.
(§2) Parallel samples were run without the addition of PCBs. At a confluence of 80%, PCBs (20 μM each, dissolved in ethanol) were added and cells were incubated for 24 h before harvest of supernatants. Supernatants were diluted 1:2 with 80 μL acetate buffer 0.1 M (pH = 5.3). 100 μL of this dilution were further incubated with 100 μL of ammonium acetate buffer 0.1 M (pH = 5.3) and 5 μL of β-Glucuronidase/Arylsulfatase enzyme overnight in a drying oven at 37 °C for enzymatic hydrolysis to release conjugated compounds. 50 μL of a mix of internal standards (10 ng/mL) and 600 μL of methanol were added to the samples, then mixed by vortexing for 1 min and centrifuged for 10 min at 3400g. The individual supernatants were transferred to glass LC vials and evaporated to approximately 50 μL at 45 °C under a gentle stream of nitrogen. Finally, 0.1 mol/ L ammonium acetate buffer was added to a final volume of 100 μL and then transferred to an insert for analysis.
(§3) HEK293 cells overexpressing the respective CYP enzymes were seeded onto 6-well plates and were treated with or without 10 µM of the respective probe drug in DMEM medium for 24 hours at 37 °C and 5 % CO2. After incubation 200 µL DMEM were collected, cells were washed with PBS and adherent cells were lysed in 500 µL methanol for 20 minutes. Analytes were measured by LC-MS/MS either in methanol cell lysates or in DMEM supernatant.
(§4) 50 µL of DMEM samples were protein precipitated by adding 200 µL of methanol and were centrifuged for 20 min, 17,000 g and 4°C. Supernatants were diluted in water or 40 % methanol according to dilution factor. Methanol cell lysates were diluted ½ with water and centrifuged for 20 min, 17,000 g and 4°C. 5 µL of the processed samples were injected for LC-MS analysis.

Another series has as its target CYP3A4 (Homo sapiens, UniProt P08684). The series can be described thus: Metabolism in transgenic HEK293 cells expressing CYP3A4. Conditions: 24 h; for Quantification of metabolites generated from PCB28, 52, and 101: 20 µM parent PCB, supernatant. The method, then: as §1, §2, §3, §4
In a further series the target is T1, CYP2A6 (Homo sapiens, UniProt P11509).
T1 sequence (P11509 1-494): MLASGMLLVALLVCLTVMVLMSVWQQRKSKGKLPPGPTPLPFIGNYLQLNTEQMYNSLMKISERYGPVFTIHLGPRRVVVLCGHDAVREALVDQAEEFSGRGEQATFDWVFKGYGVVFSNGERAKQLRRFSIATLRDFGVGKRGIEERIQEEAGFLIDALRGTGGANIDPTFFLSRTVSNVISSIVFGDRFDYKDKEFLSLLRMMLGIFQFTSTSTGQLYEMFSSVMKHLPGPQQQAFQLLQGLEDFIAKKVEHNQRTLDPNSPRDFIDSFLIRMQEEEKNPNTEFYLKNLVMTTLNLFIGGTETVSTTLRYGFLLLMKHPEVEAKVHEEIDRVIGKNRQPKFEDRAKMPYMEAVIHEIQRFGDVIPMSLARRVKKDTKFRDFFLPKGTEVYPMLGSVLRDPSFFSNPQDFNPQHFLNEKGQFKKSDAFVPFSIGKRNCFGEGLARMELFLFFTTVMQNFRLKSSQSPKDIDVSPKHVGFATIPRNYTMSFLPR
The series can be described thus: Metabolism in transgenic HEK293 cells expressing CYP2A6. On the set-up: V5-His (vector-encoded) (C); expressed in transfected cells. The class given is in vitro ADME. The conditions noted are these: 24 h; for Quantification of metabolites generated from PCB28, 52, and 101 / Metabolite concentration formed, range across cell clones: 20 µM parent PCB; for Quantification of metabolites generated from PCB28, 52, and 101: supernatant; for Metabolite concentration formed, range across cell clones: HEK293CYP2A6 cell lines. The method, then: as §1, §2, §3, §4

A short description of series [1]: PCB concentrations in plasma of HELPcB participants (2010). The class given is in vivo, human. The conditions noted are these: sample of 2010; for concentration at 2010 calendar year / concentration at 2010 calendar year of sampling: human, plasma, other: occupational exposure.

CYP2E1, sequence (P05181 whole entry): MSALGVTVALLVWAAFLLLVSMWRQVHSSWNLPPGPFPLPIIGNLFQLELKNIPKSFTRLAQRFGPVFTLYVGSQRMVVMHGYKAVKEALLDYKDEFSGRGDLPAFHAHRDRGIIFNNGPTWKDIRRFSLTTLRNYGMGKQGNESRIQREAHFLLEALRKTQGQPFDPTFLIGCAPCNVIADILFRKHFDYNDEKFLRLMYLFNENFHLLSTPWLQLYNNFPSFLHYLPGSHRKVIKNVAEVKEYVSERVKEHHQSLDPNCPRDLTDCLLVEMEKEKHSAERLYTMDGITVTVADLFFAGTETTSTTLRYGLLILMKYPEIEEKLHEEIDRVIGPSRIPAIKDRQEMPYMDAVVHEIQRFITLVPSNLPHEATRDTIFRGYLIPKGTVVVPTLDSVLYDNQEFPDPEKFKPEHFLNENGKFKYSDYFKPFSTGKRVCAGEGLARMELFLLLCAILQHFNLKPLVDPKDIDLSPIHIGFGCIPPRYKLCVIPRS
CYP3A4, sequence (P08684 whole entry): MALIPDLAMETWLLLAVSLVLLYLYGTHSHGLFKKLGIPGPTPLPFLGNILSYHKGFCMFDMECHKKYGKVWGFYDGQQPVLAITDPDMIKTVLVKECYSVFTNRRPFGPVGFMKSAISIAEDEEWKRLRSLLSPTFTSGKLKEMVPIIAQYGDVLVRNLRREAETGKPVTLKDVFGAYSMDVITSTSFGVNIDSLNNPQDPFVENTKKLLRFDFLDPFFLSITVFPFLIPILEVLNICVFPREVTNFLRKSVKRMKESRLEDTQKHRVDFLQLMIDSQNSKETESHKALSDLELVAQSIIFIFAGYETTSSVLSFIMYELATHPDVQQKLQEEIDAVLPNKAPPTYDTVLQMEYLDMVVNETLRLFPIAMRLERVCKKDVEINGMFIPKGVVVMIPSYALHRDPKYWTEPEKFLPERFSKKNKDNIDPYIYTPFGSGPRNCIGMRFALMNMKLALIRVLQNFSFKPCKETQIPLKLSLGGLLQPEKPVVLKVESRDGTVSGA

In the case of `Oc1cc(Cl)cc(-c2cc(Cl)c(Cl)cc2Cl)c1Cl` [3´-OHCB101, 2,2′,4,5,5′-pentachloro-3′-biphenylol], the “Quantification of metabolites generated from PCB28, 52, and 101” value (“Quantification of metabolites generated” below) was “<LOQ” on CYP2E1 (CYP2E1 Clone B4); “<LOQ” on CYP2E1 (CYP2E1 Clone B5); “<LOQ” at CYP2E1 (CYP2E1 Clone E6); “<LOQ” at CYP3A4 (CYP3A4 Clone D10); “<LOQ” on CYP3A4 (CYP3A4 Clone E6); 39,4 nM at CYP2A6 (CYP2A6 Clone B7). The “Quantification of metabolites generated” value at CYP2A6 (CYP2A6 Clone C4) is 24,09 nM; at CYP2A6 (CYP2A6 Clone C5) it was 4,2 nM. Also, on CYP2A6, the “Metabolite concentration formed, range across cell clones” value is 1.44–13.5 µg/L and 4.2–39.4 nM.
Take `Oc1cc(Cl)c(-c2cc(Cl)c(Cl)cc2Cl)cc1Cl` [4´-OHCB101, 2,2′,4,5,5′-Pentachloro-4′-biphenylol]: the “Quantification of metabolites generated” value is listed as 3,84 nM on CYP2E1 (CYP2E1 Clone B4); 4,02 nM on CYP2E1 (CYP2E1 Clone B5); 5,08 nM at CYP2E1 (CYP2E1 Clone E6); “<LOQ” at CYP3A4 (CYP3A4 Clone D10); “<LOQ” on CYP3A4 (CYP3A4 Clone E6); 441,30 nM on CYP2A6 (CYP2A6 Clone B7). The “Quantification of metabolites generated” value at CYP2A6 (CYP2A6 Clone C4) is on record as 272,55 nM; on CYP2A6 (CYP2A6 Clone C5) it was 55,93 nM. On CYP2A6, the “Metabolite concentration formed, range across cell clones” value is 19.15- 151.1 µg/L and 55.93–441.3 nM.
Turning to `O=c1ccc2ccccc2o1` [Coumarin, reference compound], the Conversion product at CYP2A6 (HEK293CYP2A6, 10 µM substrate) is reported as 7-hydroxycoumarin.
Turning to `Cc1ncc2n1-c1ccc(Cl)cc1C(c1ccccc1F)=NC2` [Midazolam, reference compound], on CYP3A4 (HEK293CYP3A4, 10 µM substrate), the Conversion product is on record as 1-hydroxy-midazolam.
With `Clc1cc(Cl)c(-c2ccc(Cl)c(Cl)c2Cl)cc1Cl` [PCB138], the Concentration in plasma in series [1] (HELPcB participant AD) was determined as 0.984 ng/mL; in series [1] (HELPcB participant AE), 0.773 ng/mL; in series [1] (HELPcB participant eight), 0.358 ng/mL; in series [1] (HELPcB participant five), 1.886 ng/mL; in series [1] (HELPcB participant four) it was 0.610 ng/mL; in series [1] (HELPcB participant one), 2.083 ng/mL. Besides, the Concentration in plasma in series [1] (HELPcB participant seven) was 0.738 ng/mL; in series [1] (HELPcB participant six), 14.883 ng/mL; in series [1] (HELPcB participant three) it was 1.047 ng/mL; in series [1] (HELPcB participant two) it was 0.718 ng/mL.
As to `Clc1cc(Cl)c(-c2cc(Cl)c(Cl)cc2Cl)cc1Cl` [PCB153], the Concentration in plasma turned out to be 1.397 ng/mL in series [1] (HELPcB participant AD); 1.227 ng/mL in series [1] (HELPcB participant AE); 0.59 ng/mL in series [1] (HELPcB participant eight); 1.765 ng/mL in series [1] (HELPcB participant five); 0.855 ng/mL in series [1] (HELPcB participant four); 1.907 ng/mL in series [1] (HELPcB participant one). The Concentration in plasma is 1.081 ng/mL in series [1] (HELPcB participant seven), 15.630 ng/mL in series [1] (HELPcB participant six), 1.254 ng/mL in series [1] (HELPcB participant three) and 0.945 ng/mL in series [1] (HELPcB participant two).
For the compound `Clc1cc(Cl)c(-c2cc(Cl)c(Cl)c(Cl)c2Cl)cc1Cl` [PCB180], the concentration at 2010 calendar year in series [1] (HELPcB participant AD) was 1.16 ng/mL; in series [1] (HELPcB participant AE) it was 1.28 ng/mL; in series [1] (HELPcB participant eight) it was 0.377 ng/mL; in series [1] (HELPcB participant five) it was 0.951 ng/mL; in series [1] (HELPcB participant four), 0.508 ng/mL; in series [1] (HELPcB participant seven), 0.934 ng/mL. The values for the concentration at 2010 calendar year in series [1] (HELPcB participant six) and in series [1] (HELPcB participant three) were 8.85 ng/mL and 0.95 ng/mL, respectively. Also, the concentration at 2010 calendar year of sampling in series [1] (HELPcB participant one) was determined as 0.998 ng/mL; in series [1] (HELPcB participant two) it was 0.612 ng/mL.
